target: T1, ΔF508-CFTR (Homo sapiens, UniProt P13569, DEL508-508); assay: hBE equivalent current (Ieq) assay; assay type: cell-based; conditions: AUC of equivalent chloride current as % of VX-809 (1 uM); compound at 10 uM and VX-809 at 1 uM; primary hBE cells homozygous ΔF508, 24 h treatment
T1 construct: Primary lung epithelial cells homozygous for the Cystic Fibrosis-causing ΔF508 mutation were differentiated for a minimum of 4 weeks; endogenous in cells; host or cells: primary lung (bronchial) epithelial cells (hBE) homozygous for ΔF508, differentiated at an air-liquid interface
Description: ii. hBE Equivalent Current (Ieq) Assay Primary lung epithelial cells homozygous for the Cystic Fibrosis-causing ΔF508 mutation were differentiated for a minimum of 4 weeks in an air-liquid interface on Costar 24 well HTS filter plates prior to the equivalent current (Ieq) measurements. Cells were apically mucus-washed for 30 minutes 24 h prior to treatment with compounds. The basolateral media was removed and replaced with media containing the compound of interest diluted to its final concentration from DMSO stocks. Treated cells were incubated at 37° C. and 5% CO2 for 24 hours. At the end of the treatment period, the media was changed to the Ieq experimental solution for 30 minutes before the experiment and plates are maintained in a CO2-free incubator during this period. The plates containing the cells were then placed in pre-warmed heating blocks at 36° C.±0.5 for 15 minutes before measurements are taken. The transepithelial voltage (VT) and conductance (GT) were measured using a custom 24 channel current clamp (TECC-24) with 24 well electrode manifold. The Ieq assay measurements were made following additions with standardized time periods: 1. The baseline VT and GT values were measured for approximately 20 minutes. 2. Benzamil was added to block ENaC for 15 minutes. 3. Forskolin plus VX-770 were added to maximally activate ΔF508-CFTR for 27 minutes. 4. Bumetanide was added to inhibit the NaK2Cl cotransporter and shut-off secretion of chloride. The activity data captured was the area under the curve (AUC) for the traces of the equivalent chloride current. The AUC was collected from the time of the forskolin/VX-770 addition until the inhibition by bumetanide addition. Correction in response to compound treatment was scored as the increase in the AUC for compound-treated samples over that of vehicle-treated samples. (** indicates activity ≥200% of VX-809 (1 uM) with compound at 10 uM and VX-809 at 1 uM; * indicates activity 100-200% of VX-809 (1 uM) with compound at 10 uM and VX-809 at 1 uM. ^## indicates activity ≥200% of VX-809 (3 uM) with compound at 10 uM and VX-809 at 3 uM; ^# indicates activity 100-200% of VX-809 (3 uM) with compound at 10 uM and VX-809 at 3 uM.

T1 sequence (P13569 with tags, fused parts or gaps DEL508-508): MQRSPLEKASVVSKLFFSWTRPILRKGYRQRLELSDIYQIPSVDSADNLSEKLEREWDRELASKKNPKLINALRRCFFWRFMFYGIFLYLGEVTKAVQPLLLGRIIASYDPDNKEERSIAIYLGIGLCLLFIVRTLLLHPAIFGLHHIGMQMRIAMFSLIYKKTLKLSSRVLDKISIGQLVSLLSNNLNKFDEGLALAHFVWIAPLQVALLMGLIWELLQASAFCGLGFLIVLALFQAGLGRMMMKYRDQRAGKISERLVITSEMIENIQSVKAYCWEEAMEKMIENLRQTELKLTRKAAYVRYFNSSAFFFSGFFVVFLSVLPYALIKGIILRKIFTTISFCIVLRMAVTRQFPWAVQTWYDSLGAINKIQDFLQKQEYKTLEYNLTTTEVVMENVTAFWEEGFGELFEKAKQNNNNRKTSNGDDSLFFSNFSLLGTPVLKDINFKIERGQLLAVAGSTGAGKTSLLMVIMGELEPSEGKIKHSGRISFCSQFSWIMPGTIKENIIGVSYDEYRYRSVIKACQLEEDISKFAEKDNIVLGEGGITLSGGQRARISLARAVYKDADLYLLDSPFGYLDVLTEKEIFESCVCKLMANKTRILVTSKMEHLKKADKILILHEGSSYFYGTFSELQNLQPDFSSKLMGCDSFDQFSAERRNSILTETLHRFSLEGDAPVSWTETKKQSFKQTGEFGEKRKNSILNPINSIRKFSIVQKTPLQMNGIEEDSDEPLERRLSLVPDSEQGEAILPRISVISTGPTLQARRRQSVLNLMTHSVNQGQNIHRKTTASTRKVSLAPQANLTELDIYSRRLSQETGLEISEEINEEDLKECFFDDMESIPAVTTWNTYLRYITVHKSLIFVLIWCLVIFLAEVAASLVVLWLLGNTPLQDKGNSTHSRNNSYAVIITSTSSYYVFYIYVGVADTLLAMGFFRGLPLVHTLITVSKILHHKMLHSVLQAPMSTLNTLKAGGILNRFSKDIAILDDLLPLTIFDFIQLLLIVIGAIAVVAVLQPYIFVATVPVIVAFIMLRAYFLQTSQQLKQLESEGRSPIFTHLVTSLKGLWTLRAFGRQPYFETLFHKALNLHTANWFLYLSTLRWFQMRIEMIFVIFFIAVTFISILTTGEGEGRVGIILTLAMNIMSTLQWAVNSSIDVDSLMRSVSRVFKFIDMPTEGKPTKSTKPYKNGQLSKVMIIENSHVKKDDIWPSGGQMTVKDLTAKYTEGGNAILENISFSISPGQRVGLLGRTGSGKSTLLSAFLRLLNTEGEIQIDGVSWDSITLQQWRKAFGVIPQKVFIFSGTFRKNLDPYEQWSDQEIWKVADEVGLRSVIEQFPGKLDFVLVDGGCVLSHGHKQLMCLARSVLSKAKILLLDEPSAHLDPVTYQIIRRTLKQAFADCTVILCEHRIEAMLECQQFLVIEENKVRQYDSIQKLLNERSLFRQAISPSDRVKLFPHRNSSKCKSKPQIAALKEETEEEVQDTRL

SMILES	Ieq activity
CC(O)c1nnc(NS(=O)(=O)CCNC(=O)c2cc(-c3ccccc3)on2)s1 (stereo in doubt) [Compound B8, (S)—N-(2-(N-(5-(1-hydroxyethyl)-1,3,4-thiadiazol-2-yl)sulfamoyl)ethyl)-5-phenylisoxazole-3-carboxamide]	* (activity 100-200% of VX-809 (1 uM) with compound at 10 uM and VX-809 at 1 uM)
O=C(NCCCNS(=O)(=O)c1cc(CO)n[nH]1)c1cc(-c2ccccc2)on1 [Compound B4, N-(3-((3-(hydroxymethyl)-1H-pyrazole)-5-sulfonamido)propyl)-5-phenylisoxazole-3-carboxamide]	** (activity ≥200% of VX-809 (1 uM) with compound at 10 uM and VX-809 at 1 uM)
Nc1cc(CO)nn1S(=O)(=O)CCNC(=O)c1cc(-c2ccccc2)on1 [Compound B7, N-(2-((5-amino-3-(hydroxymethyl)-1H-pyrazol-1-yl)sulfonyl)ethyl)-5-phenylisoxazole-3-carboxamide]	* (activity 100-200% of VX-809 (1 uM) with compound at 10 uM and VX-809 at 1 uM)
COCn1ccnc1S(=O)(=O)N(C)CCCNC(=O)c1cc(-c2ccccc2)on1 [Compound B11, N-(3-((1-(methoxymethyl)-N-methyl-1H-imidazole)-2-sulfonamido)propyl)-5-phenylisoxazole-3-carboxamide]	** (activity ≥200% of VX-809 (1 uM) with compound at 10 uM and VX-809 at 1 uM)
O=C(NCCNS(=O)(=O)c1cc(CO)n[nH]1)c1cc(-c2ccccc2)on1 [Compound B3, N-(2-((3-(hydroxymethyl)-1H-pyrazole)-5-sulfonamido)ethyl)-5-phenylisoxazole-3-carboxamide]	* (activity 100-200% of VX-809 (1 uM) with compound at 10 uM and VX-809 at 1 uM)
CN(CCCNC(=O)c1cc(-c2ccccc2)on1)S(=O)(=O)c1ncc[nH]1 [Compound B2, N-(3-(N-methyl-1H-imidazole-2-sulfonamido)propyl)-5-phenylisoxazole-3-carboxamide]	** (activity ≥200% of VX-809 (1 uM) with compound at 10 uM and VX-809 at 1 uM)
CN(CCCNC(=O)c1cc(-c2ccccc2)on1)S(=O)(=O)c1nccn1C [Compound B10, N-(3-((N-1-dimethyl-1H-imidazole)-2-sulfonamido)propyl)-5-phenylisoxazole-3-carboxamide]	* (activity 100-200% of VX-809 (1 uM) with compound at 10 uM and VX-809 at 1 uM)
O=C(NCCCNS(=O)(=O)c1ncc[nH]1)c1cc(-c2ccccc2)on1 [Compound B1]	** (activity ≥200% of VX-809 (1 uM) with compound at 10 uM and VX-809 at 1 uM)
O=C(NCCCNS(=O)(=O)c1ccccn1)c1cc(-c2ccccc2)on1 [Compound B6, 5-phenyl-N-(3-(pyridine-2-sulfonamido)propyl)isoxazole-3-carboxamide]	** (activity ≥200% of VX-809 (1 uM) with compound at 10 uM and VX-809 at 1 uM)
CC(O)c1nnc(NS(=O)(=O)CCNC(=O)c2cc(-c3ccccc3)on2)s1 (stereo in doubt) [Compound B9, (R)—N-(2-(N-(5-(1-hydroxyethyl)-1,3,4-thiadiazol-2-yl)sulfamoyl)ethyl)-5-phenylisoxazole-3-carboxamide]	* (activity 100-200% of VX-809 (1 uM) with compound at 10 uM and VX-809 at 1 uM)
O=C(NCCCNS(=O)(=O)c1ncccn1)c1cc(-c2ccccc2)on1 [Compound B5, 5-phenyl-N-(3-(pyrimidine-2-sulfonamido)propyl)isoxazole-3-carboxamide]	** (activity ≥200% of VX-809 (1 uM) with compound at 10 uM and VX-809 at 1 uM)

Source: patent publication US10017503B2, “Compounds, compositions, and methods for increasing CFTR activity” (Proteostasis Therapeutics, Inc., priority 2014, dated 2018)
